The values that follow come from US20100048657A1, “CONTROL OF MALIGNANT CELLS PROLIFERATION THROUGH THE INHIBITION OF CASEIN KINASE 2” (CLEVELAND STATE UNIVERSITY, priority 2006, published 2010).

Common to all, as to assay type: cell-based, human
For test [1], the system named is MEG-01 cells. Briefly: DNA content assay with PI and RNAase A. The settings on record: 10 μM, 4 days.
Test [2] has as its system fibrinogen receptor expression on MEG-01 cells. Briefly: Fibrinogen-Alexa Fluor 488 binding to MEG-01 cells. Particulars: 10 μM. Here is the method:
RPE conjugated stained cells were collected on FL2H channel and gating on populations was done on FSC and SSC logarithmic modes. The unstained control signal was subtracted from the stained cells signal, in order to measure the staining of the cells without background noise. Similar staining was done for Fibrinogen-Alexa Fluor 488 (300 nM). Cells were collected on FL1H channel and gating on the interest population was done on FSC and SSC logarithmic modes. Again, the unstained control signal was subtracted from the stained cells signal, in order to measure the staining of the cells without background noise.
Regarding FIGS. 16-20, maturation (differentiation) of MEG-01 cells is described. In FIG. 16, RPECD41a (αIIbβ3 expression) staining for DMAT treated cells (gate MEG-01) is depicted, with control untreated unstained—plot A, Control untreated stained (RPE-CD41a)—plot B, DMAT 10 μM—plot D, DMAT 15 μM—plot C, DMAT 20 μM—plot E. For FIG. 17, RPECD41a (αIIbβ3 expression) staining for DMAT, TBB and PMA (gate MEG-01) is shown. Control untreated unstained—plot A, control untreated stained—plot B, 10 μM DMAT—plot C, 25 μM TBB—plot D, 1 nM PMA treatments—plot E. FIG. 18 represents total percentage relative fluorescence for RPE-CD41a immunophenotyping. […]

The subject of test [3] is MEG-01 cells. Briefly: Anchorage independence assay in soft agar. The settings on record: 25 μM. Here is the method: Anchorage independence of growth in soft agar assay is an assay for detecting malignant transformation of cells. Anchorage independence is given by defects in the cellular adhesion pathways. Anchorage independence is strongly connected with tumorogenicity and invasiveness. Malignant cells form colonies when grown on soft agar. Normal cells cannot grow on soft agar. Agarose (V3121 from Promega, with melting point at 87-89° C. and gelling point at 36-39° C.) was mixed with MEG-01 growth media RPMI1640 1× with 10% FBS and supplements. A bottom layer of 0.5% makes a firm base, then a top layer of 0.3% agarose with media and over the agarose a layer of growth media was added. Cells were grown in 12 wells dishes at 37° C., 5% CO2, 90% humidity in a VWR incubator. […] This modified image was then transformed into a default threshold image and then colonies were gated and measured.
Referring to FIGS. 2-4, anchorage independence assay in soft agar ([…] and 0.3% top layer agar, with complete MEG-01 cells, growth media) is illustrated. […] The area of each colony was measured using the software NIH Image version 1.63. First the background was subtracted from a gray binary image, then default threshold was applied and then colonies were measured by appropriate gating. 85 colonies from 30 images were measured. […]

For the compound `CN(C)c1nc2c(Br)c(Br)c(Br)c(Br)c2[nH]1` [DMAT, 2-dimethylamino-4,5,6,7-tetrabromo-1H-benzimidazole], the “ploidy (DNA content)” value with MEG-01 cells [1] was “higher than 2N”. In addition, the “fibrinogen-Alexa Fluor 488 binding to MEG-01 cells versus untreated controls” value in test [2] is “bind significantly better fibrinogen-Alexa Fluor 488”. Further, the “colony sizes versus Control untreated” value in the test with MEG-01 cells [3] (85 colonies from 30 images, paired t-test p<0.0001) was “extremely significant”. The “colony formation in soft agar” value with MEG-01 cells [3] (observed after one week) is listed as “do not form colonies at all”.
